Source: patent US11701361B2, “p110-delta inhibitors treat and prevent autoimmunity while sparing the ability to mount an immune response to exogenous immunogens” (THE REGENTS OF THE UNIVERSITY OF COLORADO, priority 2018, dated 2023)

Columns and labels:
VH125.NOD mice = test: T1D disease progression in VH125.NOD mice on idelalisib chow; format: in vivo, mouse; conditions: female VH125.NOD mice, vs vehicle control chow
Excerpt: Except where otherwise indicated, 6-16 week old mice were used in all experiments. Both male and female mice were used, but experiments were sex matched and both sexes gave identical results, with the exception of only female mice being used in the VH125.NOD experiments as female mice develop accelerated disease. hCD20-TamCre animals (Khalil, et al. Science 336: 1178-81) were intercrossed with mice carrying the rosa26-flox-STOP-YFP allele (Srinivas, et al., BMC Dev. Biol. 1:4), generating mice in which YFP is expressed in B cells upon Cre activation. These mice were crossed with Ars/A1 (Benschop, et al., Immunity 14: 33-43) transgenic mice to generate hCD20-TamCre×rosa26-flox-STOP-YFP×Ars/A1 mice. B cells from these mice will be referred to as WT Ars/A1. […]
Diet dose (DD) is calculated by multiplying the single daily dose (SD) by the body weight of a mouse (BW) and dividing that by the daily food intake (FI) [DD=(SD×BW)/FI]. […]
To test this possibility, immediately post-weaning, female VH125.NOD mice were placed on vehicle control chow to allow habituation to the diet. […] Disease progression was monitored based on blood glucose levels and visible signs of disease (i.e., hunching, scruffy fur, excessive urination).

MD4 B cells = test: MD4 B cell adoptive transfer, response to HEL-SRBC immunization; format: in vivo, mouse
Protocol: 2 hours before adoptive transfer, C57BL/6 recipient mice received 200 rads irradiation. […] B cells from donor mice were isolated via depletion of CD43+ cells with anti-CD43-conjugated magnetic beads (MACS anti-mouse CD43; Miltenyi Biotec). Alternatively, CD4+ T cells were isolated via CD4 positive selection (MACS anti-mouse CD4 (L3T4) Miltenyi Biotec). Resultant populations were >97% pure based on flow cytometric analyses. Donor B cells were labeled with either CellTrace Violet (Molecular Probes) or CFSE (Molecular Probes) at 5 μM for 5 minutes at room temperature prior to transfer. Donor CD4 T cells were labeled with CFSE (Molecular Probes) at 5 μM for 5 minutes at room temperature prior to transfer. 1-2×10^6 donor cells in 200 μl PBS were adoptively transferred via IV injection. 24 hours post transfer, tamoxifen was administered to activate Cre. Tamoxifen (Sigma-Aldrich) was dissolved in 100% corn oil (Sigma-Aldrich) at 20 mg/ml. Recipient mice were injected IP with 100 μl (2 mg) on two consecutive days.
Diet dose (DD) is calculated by multiplying the single daily dose (SD) by the body weight of a mouse (BW) and dividing that by the daily food intake (FI) [DD=(SD×BW)/FI].
For VH125.NOD experiments animals are placed on control chow immediately after weaning.
HEL conjugated to SRBCs was used to produce antigen for experiments with MD4 B cells. SRBCs (Colorado Serum Company) were stored in Alsever's solution at 4° C. SRBCs are washed 3 times in PBS prior to use. 1 ml of 50 mg/ml of the chemical crosslinker N-(3-Dimethylaminopropyl)-N-ethylcarbodiimide hydrochloride (Sigma-Aldrich) was added to 1 ml packed SRBCs and 15 ml of 5 mg/ml HEL (Sigma-Aldrich), mixed and rotated at room temperature for 45 minutes. Mice were immunized IP with 200 μl of a 5% HEL-SRBC in PBS. For NP4Ova-Alum immunizations, 10 mg/ml alum and 5 mg/ml NP4Ova were mixed to a final concentration of 250 μg/ml NP4Ova and 2.5 mg/ml alum and rotated for 3 hours at room temperature. […] Mice were then immunized with NP4Ova-alum IP in 200 μl/mouse, and responses were measured on day 7 and day 14 post-immunization.
Spleens were mechanically disrupted, single-cell suspensions were generated, and red blood cells were lysed with ammonium chloride TRIS. Cells were resuspended in PBS containing 1% FBS and incubated with indicated antibodies. For analysis of cell surface markers, antibodies against the following molecules were used: B220-PE (BioLegend), B220-BV786 (BD Biosciences), B220-BV510 (BioLegend), CD4-BV711 (BioLegend), CD8-BV421 (BioLegend), CD138-PECy7 (BioLegend), CD69-BV786 (BD Biosciences), CD86-PerCPCy5.5 (BioLegend). After cell surface staining, the cells were fixed and permeabilized with Cytofix/Cytoperm (BD) per manufacturer's instructions and stained with Dylight650-E4 anti-Ars/A1 idiotype (produced and conjugated in our laboratory) OR HEL-650 (produced and conjugated in our laboratory) and Alexa Fluor 488-anti-GFP (rabbit polyclonal; Life Technologies). Events were collected on a CyAn ADP (Dako) and subsequent analysis using FlowJo software (Tree Star).
For detection of IgM^a anti-Ars antibodies, microtiter plates were coated with 10 μg/ml Ars-BSA16 in PBS and blocked with 2 mg/ml BSA in PBS 0.05% Tween-20. For detection of IgM^a anti-HEL antibodies, microtiter plates were coated with 10 μg/ml HEL in PBS and blocked with 2 mg/ml BSA in PBS 0.05% Tween-20. For detection of total NP-specific IgM and IgG, microtiter plates were coated with 20 μg/ml NP27BSA and blocked with 2 mg/ml BSA in PBS 0.05% Tween-20. For detection of high affinity NP-specific IgM and IgG, microtiter plates were coated with 20 μg/ml NP2BSA and blocked with 2 mg/ml BSA in PBS 0.05% Tween-20. Serial dilutions of mouse serum in PBS were added and incubated overnight at 4° C. Ars/A1-derived IgM^a antibodies and MD4-derived HEL IgM^a antibodies were detected with biotinylated DS.1 anti-IgM^a (BD Pharmingen) in PBS, followed by Streptavidin-HRP (Thermo Fisher Scientific). […]

[1] = 0.9375 mg/kg chow vs vehicle control, 5 days post immunization
[2] = 3.75 mg/kg and 30 mg/kg chow vs vehicle control, 5 days post immunization

Which results are given for `CC[C@H](Nc1ncnc2nc[nH]c12)c1nc2cccc(F)c2c(=O)n1-c1ccccc1` [idelalisib, 5-fluoro-3-phenyl-2-[(1S)-1-(7H-purin-6-ylamino)propyl]-4(3H)-quinazolinone]?
disease progression (blood glucose levels and visible signs of disease) (VH125.NOD mice; 0.9375 mg/kg idelalisib chow from pre-diabetic blood glucose readings): significantly delayed; survival (VH125.NOD mice; 0.9375 mg/kg idelalisib chow): extended; HEL-specific ASCs/spleen (MD4 B cells; [1]): equivalent; IgM anti-HEL antibody response (MD4 B cells; [1]): equivalent; proliferation of recovered MD4 B cells (MD4 B cells; 3.75 mg/kg and 30 mg/kg chow): proliferated less than in controls; recoverable transferred MD4 B cells in the spleen (MD4 B cells; 3.75 mg/kg and 30 mg/kg chow): significant decreases; IgM anti-HEL antibody response (MD4 B cells; [2]): significantly reduced; number of ASCs/spleen (MD4 B cells; [2]): reduced
